Measurements: patent US20250223284A1, “REVERSIBLE DPP1 INHIBITORS AND USES THEREOF” (Insmed Incorporated, priority 2023, published 2025)

What was measured:
mouse DPP1 enzyme = mouse DPP1 enzyme (Mus musculus (Mouse), UniProt P97821); experiment: Mouse DPP1 Enzyme IC50 Assay; type: biochemical; details: active mouse DPP1 enzyme, H-Gly-Arg-AMC substrate, 10 min pre-incubation at 37° C., MES pH 5.5
Description: Test articles were applied to active mouse DPP1 enzyme (R&D Systems; Minneapolis, MN) in Assay Buffer (50 mM MES pH 5.5, 50 mM NaCl, 5 mM DTT) in a total reaction volume of 125 μL. 25 μL of compound in Assay Buffer plus 5% DMSO was first added to 50 μL of active mouse DPP1 enzyme at a concentration of 62.5 pg/μL and allowed to pre-incubate for 10 minutes at 37° C. after which 50 μL of 1000 μM H-Gly-Arg-AMC substrate (Bachem; St. Torrance, CA) was added, giving final substrate concentration of 400 µM and a final DMSO concentration of 1%. Substrate cleavage was measured for 90 minutes at 37° C., with fluorescence at Excitation/Emission 350/450 nm measured every 5 minutes. DPP1 concentration was interpolated based on its activity relative to a standard curve of recombinant active mouse DPP1 enzyme. IC50 values for each compound were calculated via the XLFit (IDBS Version 5.3.1.3) Add-On to Microsoft Excel using the four parameter fit equation y=(A+((B−A)/(1+ ((C/x)^D)))), which appears as equation number 205 (4 Parameter Logistic Model or Sigmoidal Dose-Response Model) in XLFit. Default constraints were used for each Parameter. IC50 was defined as the compound concentration at which 50% of enzyme activity was inhibited when compared to the no-compound control.

human DPP1 enzyme = human DPP1 enzyme (Homo sapiens (Human), UniProt P53634); experiment: Human DPP1 Enzyme IC50 Assay; type: biochemical; details: recombinant human DPP1 activated with cathepsin L, H-Gly-Arg-AMC substrate, 10 min pre-incubation at 37° C., MES pH 6.0
Description: Recombinant human DPP1 enzyme (R&D Systems; Minneapolis, MN) was first proteolytically processed into its mature form using recombinant human cathepsin L (R&D Systems) in a buffer consisting of 20 mM citric acid pH 4.5, 150 mM NaCl, 1 mM EDTA and 10 mM DTT. Test articles were applied to activated human DPP1 enzyme in Assay Buffer (25 mM MES pH 6.0, 50 mM NaCl, 5 mM DTT) in a total reaction volume of 125 μL. 25 μL of compound in Assay Buffer plus 5% DMSO was first added to 50 μL of activated human DPP1 enzyme at a concentration of 1 ng/μL and allowed to pre-incubate for 10 minutes at 37° C. after which 50 μL of 1000 μM H-Gly-Arg-AMC substrate (Bachem; St. Torrance, CA) was added, giving final substrate concentration of 400 µM and a final DMSO concentration of 1%. Substrate cleavage was measured for 90 minutes at 37° C., with fluorescence at Excitation/Emission 350/450 nm measured every 5 minutes. DPP1 concentration was interpolated based on its activity relative to a standard curve of activated human recombinant DPP1 enzyme. IC50 values for each compound were calculated via the XLFit (IDBS Version 5.3.1.3) Add-On to Microsoft Excel using the four parameter fit equation y={A+[(B−A)]/[1+((C/x)^D)]}, which appears as equation number 205 (4 Parameter Logistic Model or Sigmoidal Dose-Response Model) in XLFit. Default constraints were used for each Parameter. IC50 was defined as the compound concentration at which 50% of enzyme activity was inhibited when compared to the no-compound control.

Sequence of human DPP1 enzyme (P53634 25-134): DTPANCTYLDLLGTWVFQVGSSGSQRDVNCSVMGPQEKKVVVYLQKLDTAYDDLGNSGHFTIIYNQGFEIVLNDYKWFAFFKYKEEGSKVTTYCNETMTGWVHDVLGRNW
Sequence of human DPP1 enzyme (P53634 231-394): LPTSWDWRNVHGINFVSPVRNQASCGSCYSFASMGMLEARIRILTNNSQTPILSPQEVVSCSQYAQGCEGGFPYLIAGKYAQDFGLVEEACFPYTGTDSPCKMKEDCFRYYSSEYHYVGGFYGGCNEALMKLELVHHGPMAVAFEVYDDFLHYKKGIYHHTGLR
Sequence of human DPP1 enzyme (P53634 395-463): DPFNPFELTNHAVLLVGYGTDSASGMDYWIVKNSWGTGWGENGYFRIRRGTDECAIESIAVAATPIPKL
Sequence of mouse DPP1 enzyme (P97821 25-134): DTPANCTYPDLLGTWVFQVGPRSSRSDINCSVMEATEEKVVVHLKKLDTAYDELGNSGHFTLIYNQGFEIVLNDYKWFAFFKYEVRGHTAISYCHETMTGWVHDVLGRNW
Sequence of mouse DPP1 enzyme (P97821 231-393): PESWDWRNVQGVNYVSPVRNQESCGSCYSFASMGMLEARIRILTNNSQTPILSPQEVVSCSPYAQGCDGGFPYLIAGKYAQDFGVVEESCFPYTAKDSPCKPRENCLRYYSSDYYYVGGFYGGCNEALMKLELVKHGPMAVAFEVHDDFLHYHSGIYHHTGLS
Sequence of mouse DPP1 enzyme (P97821 394-462): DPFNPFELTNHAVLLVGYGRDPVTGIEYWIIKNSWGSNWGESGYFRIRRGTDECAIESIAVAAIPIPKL

| IC50 (mouse DPP1 enzyme) [nM] | IC50 (human DPP1 enzyme) [nM] | SMILES |
| --- | --- | --- |
| 51.7 | 39.6 | Cn1c(=O)oc2ccc(-c3ccc(C[C@@H](C#N)NC(=O)[C@@H]4CNC[C@@](C)(O)CO4)cc3)cc21 (relative stereo) [Compound 2-A, (2S,6R*)—N-[(1S)-1-cyano-2-[4-(3-methyl-2-oxo-2,3-dihydro-1,3-benzoxazol-5-yl)phenyl]ethyl]-6-hydroxy-6-methyl-1,4-oxazepane-2-carboxamide] |
| 130 | 145 | CO[C@@]1(C)CNC[C@@H](C(=O)N[C@H](C#N)Cc2ccc(-c3ccc4oc(=O)n(C)c4c3)cc2)OC1 (relative stereo) [Compound 3-A, (2S,6S*)—N-[(1S)-1-cyano-2-[4-(3-methyl-2-oxo-2,3-dihydro-1,3-benzoxazol-5-yl)phenyl]ethyl]-6-methoxy-6-methyl-1,4-oxazepane-2-carboxamide] |
| 251 | 206 | CO[C@]1(C)CNC[C@@H](C(=O)N[C@H](C#N)Cc2ccc(-c3ccc4oc(=O)n(C)c4c3)cc2)OC1 (relative stereo) [Compound 3-B, (2S,6R*)—N-[(1S)-1-cyano-2-[4-(3-methyl-2-oxo-2,3-dihydro-1,3-benzoxazol-5-yl)phenyl]ethyl]-6-methoxy-6-methyl-1,4-oxazepane-2-carboxamide] |
